# Data from patent US11040026B2, “Muscarinic M1 receptor positive allosteric modulators” (SUVEN LIFE SCIENCES LIMITED, priority 2016, dated 2021).
# Counter-ions that a name gives are not always drawn.
# Biological target: T1, muscarinic M1 receptor (Homo sapiens, UniProt P11229)
# T1 sequence (P11229 1-460): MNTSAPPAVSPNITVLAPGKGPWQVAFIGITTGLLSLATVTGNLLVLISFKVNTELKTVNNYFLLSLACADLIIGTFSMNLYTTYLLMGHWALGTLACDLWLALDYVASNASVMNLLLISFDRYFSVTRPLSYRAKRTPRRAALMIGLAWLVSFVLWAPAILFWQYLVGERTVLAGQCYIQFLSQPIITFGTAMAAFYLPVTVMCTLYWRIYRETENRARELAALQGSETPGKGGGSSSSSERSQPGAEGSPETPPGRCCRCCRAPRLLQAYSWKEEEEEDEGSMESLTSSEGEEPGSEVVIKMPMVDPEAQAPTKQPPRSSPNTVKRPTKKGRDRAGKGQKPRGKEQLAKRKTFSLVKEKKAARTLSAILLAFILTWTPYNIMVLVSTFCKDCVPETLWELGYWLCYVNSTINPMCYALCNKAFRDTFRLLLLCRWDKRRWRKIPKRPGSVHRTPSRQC
# Assay: Allosteric potency EC50 for muscarinic M1 receptor (CHO pCRE-Luc reporter assay)
# Assay type: cell-based
# Conditions: in presence of EC20 of acetylcholine; CHO cells, luciferase reporter, 4 hours
# Method: Determination of Allosteric Potency EC50 Values for Muscarinic M1 Receptor:
# A stable CHO cell line expressing recombinant human Muscarinic M1 receptor and pCRE-Luc reporter system was used for cell-based assay. The assay offers a non-radioactive based approach to determine binding of a compound to GPCRs. In this specific assay, the level of intracellular cyclic AMP which is modulated by activation or inhibition of the receptor is measured. The recombinant cells harbor luciferase reporter gene under the control of cyclic AMP response element.
# The above cells were grown in 96 well clear bottom white plates in Hams F12 medium containing 10% fetal bovine serum (FBS). Prior to the addition of compounds or standard agonist, cells were serum starved overnight. Increasing concentrations of test compounds were added along with EC20 of acetylcholine in OptiMEM medium to the cells. The incubation was continued at 37° C. in CO2 incubator for 4 hours. Medium was removed and cells were washed with phosphate buffered saline. The cells were lysed and luciferase activity was measured in a Luminometer. Luminescence units were plotted against the compound concentrations using Graphpad software. EC50 values of the compounds were defined as the concentration required in stimulating the luciferase activity by 50% in presence of EC20 of acetylcholine and the results are provided in table 1.
row,Compound,EC50
1,"COc1ccc(Cc2cc(C(=O)N[C@H]3CCCC[C@@H]3O)nc3c2ccn3C)cc1 [Example 19, N-[(1S,2S)-2-Hydroxycyclohexyl]-4-(4-methoxybenzyl)-1-methyl-1H-pyrrolo[2,3-b]pyridine-6-carboxamide]",1110 nM
2,"Cn1cc(-c2ccc(Cc3cc(C(=O)N[C@H]4CCCC[C@@H]4O)nc4c3ccn4C)cn2)cn1 [Example 15, N-[(1S,2S)-2-Hydroxycyclohexyl]-4-[2-(1-methyl-1H-pyrazol-4-yl)pyridin-5-ylmethyl]-1-methyl-1H-pyrrolo[2,3-b]pyridine-6-carboxamide]",38 nM
3,"Cn1ccc2c(Cc3ccc(-c4cscn4)cc3)cc(C(=O)NCC(C)(C)O)nc21 [Example 24, N-(2-Hydroxy-2-methylpropyl)-4-[4-(thiazol-4-yl)benzyl]-1-methyl-1H-pyrrol[2,3-b]pyridine-6-carboxamide]",834 nM
4,"Cn1ccc2c(Cc3cc(F)ncc3F)cc(C(=O)N[C@H]3CCCC[C@@H]3O)nc21 [Example 11, N-[(1S,2S)-2-Hydroxycyclohexyl]-4-(2,5-difluoropyridin-4-ylmethyl)-1-methyl-1H-pyrrolo[2,3-b]pyridine-6-carboxamide]",1720 nM
5,"COc1ccc(Cc2cc(C(=O)N[C@H]3CCCC[C@@H]3O)nc3c2ccn3C)cn1 [Example 2, N-[(1S,2S)-2-Hydroxycyclohexyl]-4-(2-methoxypyridin-5-ylmethyl)-1-methyl-1H-pyrrolo[2,3-b]pyridine-6-carboxamide]",1080 nM
6,"Cn1ccc2c(Cc3ccncc3)cc(C(=O)N[C@H]3CCCC[C@@H]3O)nc21 [Example 14, N-[(1S,2S)-2-Hydroxycyclohexyl]-4-(pyridin-4-ylmethyl)-1-methyl-1H-pyrrolo[2,3-b]pyridine-6-carboxamide]",891 nM
7,"Cn1cc(-c2ccc(Cc3cc(C(=O)N[C@H]4CCCC[C@@H]4O)nc4c3ccn4C)cc2)cn1 [Example 7, N-[(1S,2S)-2-Hydroxycyclohexyl]-4-[4-(1-methyl-1H-pyrazol-4-yl)benzyl]-1-methyl-1H-pyrrolo[2,3-b]pyridine-6-carboxamide]",8 nM
8,"Cc1cc(Cc2cc(C(=O)N[C@H]3CCCC[C@@H]3O)nc3c2ccn3C)ccn1 [Example 17, N-[(1S,2S)-2-Hydroxycyclohexyl]-4-(2-methylpyridin-4-ylmethyl)-1-methyl-1H-pyrrolo[2,3-b]pyridine-6-carboxamide]",1630 nM
9,"Cn1ccc2c(Cc3ccc(-c4cscn4)cc3)cc(C(=O)NCC3(O)CCCC3)nc21 [Example 26, N-(1-Hydroxycyclopentylmethyl)-4-[4-(thiazol-4-yl)benzyl]-1-methyl-1H-pyrrolo[2,3-b]pyridine-6-carboxamide]",221 nM
10,"Cn1ccc2c(Cc3ccc4ncsc4c3)cc(C(=O)N[C@H]3CCCC[C@@H]3O)nc21 [Example 12, N-[(1S,2S)-2-Hydroxycyclohexyl]-4-(benzothiazol-6-ylmethyl)-1-methyl-1H-pyrrolo[2,3-b]pyridine-6-carboxamide]",306 nM
11,"Cn1ccc2c(Cc3cccc(F)c3F)cc(C(=O)N[C@H]3CCCC[C@@H]3O)nc21 [Example 16, N-[(1S,2S)-2-Hydroxycyclohexyl]-4-(2,3-difluorobenzyl)-1-methyl-1H-pyrrolo[2,3-b]pyridine-6-carboxamide]",1290 nM
12,"CSc1ccc(Cc2cc(C(=O)N[C@H]3CCCC[C@@H]3O)nc3c2ccn3C)cn1 [Example 20, N-[(1S,2S)-2-Hydroxycyclohexyl]-4-(2-methylsulfanylpyridin-5-ylmethyl)-1-methyl-1H-pyrrolo[2,3-b]pyridine-6-carboxamide]",315 nM
13,"Cc1ncccc1-c1ccc(Cc2cc(C(=O)N[C@H]3CCCC[C@@H]3O)nc3c2ccn3C)cc1 [Example 21, N-[(1S,2S)-2-Hydroxycyclohexyl]-4-[4-(2-methylpyridin-3-yl)benzyl]-1-methyl-1H-pyrrolo[2,3-b]pyridine-6-carboxamide]",1050 nM
14,"Cn1ccc2c(Cc3cccc(F)c3)cc(C(=O)N[C@H]3CCCC[C@@H]3O)nc21 [Example 25, N-[(1S,2S)-2-Hydroxycyclohexyl]-4-(3-fluorobenzyl)-1-methyl-1H-pyrrolo[2,3-b]pyridine-6-carboxamide]",362 nM

# More lines, now with the values ahead:
row,EC50,Compound
1,380 nM,"CN1CCc2c(Cc3ccc(F)cc3)cc(C(=O)N[C@H]3CCCC[C@@H]3O)nc21 [Example 76, N-[(1S,2S)-2-Hydroxycyclohexyl]-4-(4-fluorobenzyl)-1-methyl-2,3-dihydro-1H-pyrrolo[2,3-b]pyridine-6-carboxamide]"
2,486 nM,"Cn1ccc2c(Cc3ccc(F)cc3)cc(C(=O)N[C@@H]3CCOC[C@H]3O)nc21 (racemic) [Example 32, Racemic trans-N-(3-Hydroxytetrahydropyran-4-yl)-4-(4-fluorobenzyl)-1-methyl-1H-pyrrolo[2,3-b]pyridine-6-carboxamide]"
3,136 nM,"O=C(N[C@@H]1CCOC[C@H]1O)c1cc(Cc2ccc(F)cc2)c2c(n1)OCCO2 (single isomer, unassigned) [Example 113, trans-N-(3-Hydroxytetrahydropyran-4-yl)-8-(4-fluorobenzyl)-2,3-dihydro-[1,4]dioxino[2,3-b]pyridine-6-carboxamide (Isomer-IT)]"
4,1410 nM,"Cn1ccc2c(Cc3ccc(Cl)nc3)cc(C(=O)N[C@H]3CCOC[C@H]3O)nc21 (single isomer, unassigned; isomer-i) [Example 49, cis-N-(3-Hydroxytetrahydropyran-4-yl)-4-(2-chloropyridin-5-ylmethyl)-1-methyl-1H-pyrrolo[2,3-b]pyridine-6-carboxamide (Isomer-I)]"
5,2960 nM,"Cn1ccc2c(Cc3ccnc(F)c3)cc(C(=O)N[C@H]3CCOC[C@H]3O)nc21 (single isomer, unassigned; isomer-i) [Example 46, cis-N-(3-Hydroxytetrahydropyran-4-yl)-4-(2-fluoropyridin-4-ylmethyl)-1-methyl-1H-pyrrolo[2,3-b]pyridine-6-carboxamide (Isomer-I)]"
6,1820 nM,"Cn1ccc2c(Cc3ccc(F)c(F)c3)cc(C(=O)N[C@@H]3CCOC[C@H]3O)nc21 (single isomer, unassigned; isomer-i) [Example 51, trans-N-(3-Hydroxytetrahydropyran-4-yl)-4-(3,4-difluorobenzyl)-1-methyl-1H-pyrrolo[2,3-b]pyridine-6-carboxamide (Isomer-I)]"
7,2290 nM,"Cn1ccc2c(Cc3ccc(F)c(F)c3)cc(C(=O)N[C@H]3CCOC[C@H]3O)nc21 (single isomer, unassigned; isomer-ii) [Example 42, cis-N-(3-Hydroxytetrahydropyran-4-yl)-4-(3,4-difluorobenzyl)-1-methyl-1H-pyrrolo[2,3-b]pyridine-6-carboxamide (Isomer-II)]"
8,18 nM,"Cn1cc(-c2ccc(Cc3cc(C(=O)N[C@H]4CCCC[C@@H]4O)nc4c3CCNC4)cc2)cn1 [Example 90, N-[(1S,2S)-2-Hydroxycyclohexyl]-4-[4-(1-methyl-1H-pyrazol-4-yl)-benzyl-5,6,7,8-tetrahydro[1,7]naphthyridine-2-carboxamide Hydrochloride]"
9,6 nM,"O=C(N[C@@H]1CCOC[C@H]1O)c1cc(Cc2ccc(-c3cscn3)cc2)c2c(n1)CNCC2 (single isomer, unassigned; isomer-ii) [Example 97, trans-N-(3-Hydroxytetrahydropyran-4-yl)-4-[4-(thiazol-4-yl)benzyl]-5,6,7,8-tetrahydro[1,7]naphthyridine-2-carboxamide Hydrochloride (Isomer-II)]"
10,1470 nM,"Cn1ccc2c(Cc3ccc(F)cc3)cc(C(=O)N[C@@H]3CCOC[C@@H]3O)nc21 (racemic) [Example 35, Racemic cis-N-(3-Hydroxytetrahydropyran-4-yl)-4-(4-fluorobenzyl)-1-methyl-H-pyrrolo[2,3-b]pyridine-6-carboxamide]"
11,2530 nM,"Cn1ccc2c(Cc3cccc(F)c3F)cc(C(=O)N[C@@H]3CCOC[C@H]3O)nc21 (single isomer, unassigned; isomer-i) [Example 43, trans-N-(3-Hydroxytetrahydropyran-4-yl)-4-(2,3-difluorobenzyl)-1-methyl-1H-pyrrolo[2,3-b]pyridine-6-carboxamide (Isomer-I)]"
12,38 nM,"Cn1cc(-c2ccc(Cc3cc(C(=O)NC4CCOCC4O)nc4c3ccn4C)cc2)cn1 (racemic) [Example 56, Racemic trans-N-(3-Hydroxytetrahydropyran-4-yl)-4-[4-(1-methyl-1H-pyrazol-4-yl)benzyl]-1-methyl-1H-pyrrolo[2,3-b]pyridine-6-carboxamide]"
13,31 nM,"Cn1ccc2c(Cc3ccc(-c4cscn4)cc3)cc(C(=O)NC3CCOCC3O)nc21 (racemic) [Example 53, Racemic trans-N-(3-Hydroxytetrahydropyran-4-yl)-4-[4-(thiazol-4-yl)benzyl]-1-methyl-1H-pyrrolo[2,3-b]pyridine-6-carboxamide]"
